Where a SMILES comes first, the peptide text is derived from it. [ ]: non-standard residue; d: D form. The star is where a group is joined. Boc = CC(C)(C)OC(=O)*; Nlys = NCCCCNCC(=O)O

In one assay the target is human PSMA (Homo sapiens (Human), UniProt Q04609). As to the kind of experiment: Enzymatic assay for in vitro evaluation of PSMA inhibitors (fluorescent assay of PSMA activity, NAAG substrate, OPA detection of glutamate). The format is biochemical.
human PSMA, sequence (Q04609 whole entry): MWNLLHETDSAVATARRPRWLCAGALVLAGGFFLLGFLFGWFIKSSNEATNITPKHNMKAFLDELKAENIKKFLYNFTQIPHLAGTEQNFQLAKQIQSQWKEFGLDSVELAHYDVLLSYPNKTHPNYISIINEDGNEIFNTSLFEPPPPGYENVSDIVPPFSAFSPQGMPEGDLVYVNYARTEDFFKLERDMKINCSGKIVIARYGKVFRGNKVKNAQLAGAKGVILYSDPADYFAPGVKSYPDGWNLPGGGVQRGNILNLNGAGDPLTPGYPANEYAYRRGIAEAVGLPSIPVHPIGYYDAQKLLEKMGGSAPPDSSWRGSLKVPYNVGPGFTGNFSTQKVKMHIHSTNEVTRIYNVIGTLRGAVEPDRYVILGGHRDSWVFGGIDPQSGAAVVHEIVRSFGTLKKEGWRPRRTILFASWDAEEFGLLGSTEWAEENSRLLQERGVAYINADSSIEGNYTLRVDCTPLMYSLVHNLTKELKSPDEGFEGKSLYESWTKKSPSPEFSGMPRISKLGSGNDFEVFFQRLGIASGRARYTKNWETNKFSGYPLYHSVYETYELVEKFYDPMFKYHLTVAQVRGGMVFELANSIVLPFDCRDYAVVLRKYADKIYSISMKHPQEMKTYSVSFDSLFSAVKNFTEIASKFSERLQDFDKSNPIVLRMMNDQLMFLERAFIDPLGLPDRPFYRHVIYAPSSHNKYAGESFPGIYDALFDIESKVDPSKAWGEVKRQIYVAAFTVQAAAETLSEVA
Details: not given
How it is done: Enzymatic Assay for In Vitro Evaluation of PSMA Inhibitors
The inhibitory activity of all compounds was determined using a fluorescent assay of human PSMA activity. The enzyme used in the assay was purchased from R&D Systems and stored at −80° C. The PSMA activity was assayed in a two-step process. In the first step, aliquots of enzyme (0.2 μg/mL) were incubated for 1 h at 37° C. in 50 mM HEPES, 0.1 M NaCl, pH 7.5, in the presence of 20 μM NAAG and the given inhibitor, in a volume of 250 μL, to allow for the accumulation of glutamate produced in the PSMA reaction. In the second step, the amount of accumulated glutamate was measured using the OPA reaction, and the fluorescence was read with a SpectraMax fluorescent plate reader using excitation at 330 nm and emission at 450 nm. The final Ki values for each inhibitor were calculated from the respective IC50 values using the Cheng and Prusoff equation.
Turning to `O=C(O)CCC(NC(=O)N[C@@H](CCCCNc1cc(OCC(COc2ccc([N+](=O)[O-])c(NCCCCC(NC(=O)N[C@@H](CCC(=O)O)C(=O)O)C(=O)O)c2)OCc2cn(CCF)nn2)ccc1[N+](=O)[O-])C(=O)O)C(=O)O` (stereo in doubt) [P277, (2S)-2-(3-((1S)-1-Carboxy-5-((5-(3-(3-(((S)-5-carboxy-5-(3-((S)-1,3-dicarboxypropyl)ureido)pentyl)amino)-4-nitrophenoxy)-2-((1-(2-fluoroethyl)-1H-1,2,3-triazol-4-yl)methoxy)propoxy)-2-nitrophenyl)amino)pentyl)ureido)pentanedioic Acid], the Ki stood at 0.4 nM.

With `O=C(O)CC[C@H](NC(=O)NC(Cc1ccc(NC(=O)N2CCN(C(=O)c3cc(C(=O)N4CCN(C(=O)Nc5ccc(CC(NC(=O)N[C@@H](CCC(=O)O)C(=O)O)C(=O)O)cc5)CC4)cc(-n4cc(CCCF)nn4)c3)CC2)cc1)C(=O)O)C(=O)O` (stereo in doubt) [P275, (2S,2′S)-2,2′-(((((1S,1′S)-(((4,4′-(5-(4-(3-Fluoropropyl)-1H-1,2,3-triazol-1-yl)isophthaloyl)bis(piperazine-1,1′-carbonyl))bis(azanediyl))bis(4,1-phenylene))bis(1-carboxyethane-2,1-diyl))bis(azanediyl))bis(carbonyl))bis(azanediyl))dipentanedioic Acid], the Ki came to 6.6 nM.

For `O=C(O)CC[C@H](NC(=O)N[C@@H](CCCCNC(=O)CC(CC(=O)NCCCC[C@H](NC(=O)N[C@@H](CCC(=O)O)C(=O)O)C(=O)O)NC(=O)Cn1cc(CCCF)nn1)C(=O)O)C(=O)O` [P276, (3S,7S,23S,27S)-15-(2-(4-(3-Fluoropropyl)-1H-1,2,3-triazol-1-yl)acetamido)-5,13,17,25-tetraoxo-4,6,12,18,24,26-hexaazanonacosane-1,3,7,23,27,29-hexacarboxylic Acid], the Ki came to 1.3 nM.

In turn, `O=C(O)CC[C@H](NC(=O)N[C@@H](CCCCNC(=O)N1CCN(C(=O)c2ccc(-n3cc(CCCF)nn3)cc2)CC1)C(=O)O)C(=O)O` (stereo in doubt) [P249, (S)-2-(3-((S)-1-Carboxy-5-(4-(4-(4-(3-fluoropropyl)-1H-1,2,3-triazol-1-yl)benzoyl)-piperizine-1-carboxamido)pentyl)ureido)pentanedioic Acid] displayed a Ki of 9.4 nM.

For `NCCOCCOCCOCCOCCn1cc(-c2ccc(C(=O)NCCCC[C@H](NC(=O)N[C@@H](CCC(=O)O)C(=O)O)C(=O)O)cc2)nn1` [P258, (S)-2-(3-((S)-5-(4-(1-(14-Amino-3,6,9,12-tetraoxatetradecyl)-1H-1,2,3-triazol-4-yl)benzamido)-1-carboxypentyl)ureido)pentanedioic Acid], the Ki came out at 41 nM. This Ki is about 4.4-fold higher than that of the compound before.

Still in this assay, the particulars now being: 1.0 μM.
For `O=C(O)CC[C@H](NC(=O)N[C@@H](CCCCNC(=O)c1cc(C(=O)N[C@@H](CCC(=O)O)C(=O)O)cc(-n2cc(CCCF)nn2)c1)C(=O)O)C(=O)O` [P268, (S)-2-(3-((S)-1-Carboxy-5-(3-(((S)-1,3-dicarboxypropyl)carbamoyl)-5-(4-(3-fluoropropyl)-1H-1,2,3-triazol-1-yl)benzamido)pentyl)ureido)pentanedioic Acid], the “PSMA Blkg % (1.0 μM)” value is on record as 68%.

The same assay, now with this note: 10 μM.
Regarding `O=C(O)CC[C@H](NC(=O)C[C@@H](NC(=O)CCCc1ccc(-n2cc(CCCF)nn2)cc1)C(=O)O)C(=O)O` [P219, (S)-2-((R)-3-Carboxy-3-(4-(4-(4-(3-fluoropropyl)-1H-1,2,3-triazol-1-yl)phenyl)butanamido)-propanamido)pentanedioic Acid], the “PSMA Blkg % (10 μM)” value is on record as 74%.

Staying with this assay, now noted: compound at 10 μM.
`CC(=O)N(CCCCNC(=O)OC(C)(C)C)CC(=O)N[C@@H](CCC(=O)O)C(=O)O` [P040, (S)-2-(2-(N-(4-(tert-Butoxycarbonylamino)butyl)acetamido)acetamido)pentanedioic Acid] (Ac-[Nlys](Boc)-Glu-OH): the “PSMA Blkg % (10 μM)” value worked out at 42%.

Take “(9S,13S)-9-Carboxy-13-((1-(2-fluoroethyl)-1H-1,2,3-triazol-4-yl)methyl)-3,11-dioxo-1-phenyl-2-oxa-4,10,12-triazatetradecan-14-oic Acid [P187]”: the “PSMA Blkg % (10 μM)” value was 77%.

Consider `CN1C(=O)N(C(CCC(=O)O)C(=O)O)C(=O)[C@@H]1CCCCNC(=O)c1ccc(N=[N+]=[N-])cc1` (stereo partly drawn) [P086, 2-((S)-4-(4-(4-Azidobenzamido)butyl)-3-methyl-2,5-dioxoimidazolidin-1-yl)-pentanedioic Acid], for which the “PSMA Blkg % (10 μM)” value was 25%.

As to `CCC1(CC)C(=O)N([C@@H](CCCCNS(=O)(=O)c2ccc([N+](=O)[O-])cc2)C(=O)O)C(=O)N([C@@H](CCC(=O)O)C(=O)O)C1=O` [P107, (S)-2-(3-((S)-1-Carboxy-5-(4-nitrophenylsulfonamido)pentyl)-5,5-diethyl-2,4,6-trioxotetrahydropyrimidin-1(2H)-yl)pentanedioic Acid], the “PSMA Blkg % (10 μM)” value came out at 19%.

With `O=C(O)CC[C@@H](C(=O)O)N1C(=O)CC(=O)N([C@@H](CCCCNC(=O)NCc2ccccc2)C(=O)O)C1=O` [P129, (S)-2-(3-((S)-5-(3-Benzylureido)-1-carboxypentyl)-2,4,6-trioxotetrahydropyrimidin-1(2H)-yl)pentanedioic Acid], the “PSMA Blkg % (10 μM)” value was determined as 10%.

In the case of `CCS(=O)(=O)N(CCc1ccccc1)CC(=O)NC(CCC(=O)O)C(=O)O` (stereo not shown) [P052, 2-(2-(N-Phenethylethylsulfonamido)acetamido)pentanedioic Acid], the “PSMA Blkg % (10 μM)” value came to 2%.

`O=C(O)CC[C@H](NC(=O)C[C@H](NC(=O)OCc1ccccc1)C(=O)O)C(=O)O` [P015, (S)-2-((S)-3-(((Benzyloxy)carbonyl)amino)-3-carboxypropanamido)pentanedioic Acid]: the “PSMA Blkg % (10 μM)” value was determined as 0%.

Regarding `CCC1(CC)C(=O)N([C@@H](CCCCNC(=O)OCc2ccc([N+](=O)[O-])cc2)C(=O)O)C(=O)N([C@@H](CCC(=O)O)C(=O)O)C1=O` [P118, (S)-2-(3-((S)-1-Carboxy-5-((4-nitrobenzyloxy)carbonylamino)pentyl)-5,5-diethyl-2,4,6-trioxotetrahydropyrimidin-1(2H)-yl)pentanedioic Acid], the “PSMA Blkg % (10 μM)” value is given as 13%.

For the compound `O=C(O)CC[C@H](NC(=O)N(CC(=O)O)[C@@H](CCCCNC(=O)OCc1ccccc1)C(=O)O)C(=O)O` [P008, (9S,13S)-10-(Carboxymethyl)-3,1-dioxo-1-phenyl-2-oxa-4,10,12-triazapentadecane-9,13,15-tricarboxylic Acid], the “PSMA Blkg % (10 μM)” value is on record as 21%.

`NNC(=O)N[C@@H](CCC(=O)O)C(=O)O` [P061, (S)-2-(Hydrazinecarboxamido)pentanedioic Acid]: the “PSMA Blkg % (10 μM)” value worked out at 0%.

For the compound `CCC1(CC)C(=O)N([C@@H](CCCCn2cc(CCCF)nn2)C(=O)O)C(=O)N([C@@H](CCC(=O)O)C(=O)O)C1=O` [P150, (S)-2-(3-((S)-1-Carboxy-5-(4-(3-fluoropropyl)-1H-1,2,3-triazol-1-yl)pentyl)-5,5-diethyl-2,4,6-trioxotetrahydropyrimidin-1(2H)-yl)pentanedioic Acid], the “PSMA Blkg % (10 μM)” value came out at 9%.

Take `O=C(O)CC[C@@H](C(=O)O)N1C(=O)CC(=O)N([C@@H](CCCCNC(=O)OCc2ccc([N+](=O)[O-])cc2)C(=O)O)C1=O` [P120, (S)-2-(3-((S)-1-Carboxy-5-((4-nitrobenzyloxy)carbonylamino)pentyl)-2,4,6-trioxotetrahydropyrimidin-1(2H)-yl)pentanedioic Acid]: the “PSMA Blkg % (10 μM)” value amounted to 15%.

The term Ki denotes a dissociation constant, usually derived from enzyme kinetics or from competition with a known ligand. A higher Ki goes with weaker binding.

The values above are taken from patent US10894807B2 (Siemens Medical Solutions USA, Inc., priority 2011, dated 2021).
